Laboratory results from patent publication US20130184302A1, “METHODS FOR TREATING IRRITABLE BOWEL SYNDROME (IBS) AND INFECTIONS” (priority 2011, published 2013).

Legend:
Assay type in all cases: in vivo, human
[1] = tested on: C. difficile infection (CDI); assay: CDI trial rifaximin 400 mg TID vs vancomycin 125 mg QID: clinical success at Test of Cure
Experimental: Criteria for entry into the trial were: • Age>=18 years old; • Had acute diarrhea at screening defined as >=3 unformed stools in the last 24 hours and at least one sign of enteric infection (fever, nausea, lose of appetite, vomiting, severe abdominal pain/discomfort); and • a positive C. diff stool toxin assay
The primary efficacy endpoint of the study was defined as the proportion of subjects achieving clinical success. Specifically, clinical success was defined as the absence of severe abdominal pain at Test of Cure (TOC), absence of fever (<38° C.) at TOC, and <3 unformed stools for two consecutive days at TOC.
The non-inferiority margin for the primary endpoint was defined as lower bound of 95% CI of delta above −15%.
Clinical success was defined as the: Absence of severe abdominal pain at TOC, absence of fever (<38° C.) at TOC, and <3 unformed stools for two consecutive days at TOC. Test of cure defined as Day 14+/−1 day.

[2] = tested on: patients with non-constipation IBS (non-C IBS); assay: Adverse events and discontinuation, rifaximin 550 mg TID study; settings: 550 mg rifaximin TID
subjects with d-IBS = assay: Adequate relief of IBS symptoms and bloating (weekly yes/no questions), rifaximin BID study in d-IBS; settings: aIBS
[3] = tested on: C. difficile infection (CDI); assay: CDI trial: number of unformed stools during the treatment period
Text: FIG. 18 sets for the average number of unformed stools per day of the study.

subjects with IBS = assay: Analysis of two studies after 3 months: global IBS symptoms, abdominal pain, bloating responders; settings: for Responders: Abdominal pain reduction of 1 point in median: at least 2 weeks during PEP; for Global IBS symptoms: at least 2 out of 4 weeks adequate relief during weeks 3 through 6 (weekly question): 550 mg TID 14 days
Text: A measure of efficacy is based on subjects' answers to the Weekly Subject Global Assessment (SGA) questions over the study duration in relation to their IBS symptoms.
The study endpoints of the studies were Global IBS symptoms and AUC in abdominal pain during the study.
The primary and secondary endpoints evaluated in this study were the effect of treatment on the percentage of subjects who reported adequate relief of Global IBS symptoms, reduction in abdominal pain and the adequate relief of IBS symptom of bloating.

[4] = at TOC (Day 14+/−1), Rifaximin N = 117, Vancomycin N = 115

With CO[C@H]1/C=C/O[C@@]2(C)Oc3c(C)c(O)c4c(O)c(c5c(nc6cc(C)ccn65)c4c3C2=O)NC(=O)/C(C)=C\C=C\[C@H](C)[C@H](O)[C@@H](C)[C@@H](O)[C@@H](C)[C@H](OC(C)=O)[C@@H]1C [Rifaximin, (2S,16Z,18E,20S,21S,22R, 23R,24R,25S,26S,27S,28E)-5,6,21,23,25 Pentahydroxy-27-methoxy-2,4,11,16,20,22,24,26-octamethyl-2,7-(epoxypentadeca-(1,11,13)trienimino) benzofuro (4,5-e) pyrido(1,2,-a) benzimidazole-1,15(2H)-dione,25-acetate] the “Clinical Success: Treatment Difference” value ([1]; Rifaximin vs Vancomycin, at TOC) was −6.2%, the “Clinical Success: Yes, number of subjects” value ([1]; at TOC (Day 14+/−1), Rifaximin 400 mg TID N = 117, Vancomycin 125 mg QID N = 115) was 67 and the “Clinical Success: No, number of subjects” value [1, 4] was 50. For the same compound, the “Clinical Success: No, percent of subjects” value [1, 4] was “(43%)”, the “Clinical Success: Yes, percent of subjects” value [1, 4] was “(57%)” and the “Subjects with skin or subcutaneous tissue disorders” value [2] was 1.3%. For the same compound, the “Treatment effect, Bloating” value (subjects with d-IBS) was 31.4%*, 31.4%, the “Adjusted mean number of unformed stools-ANOVA: Treatment Difference (95% CI)” value ([3]; Rifaximin vs Vancomycin, treatment period) was 0.46 (−0.08, 1.00) and the “Overall treatment difference in number of unformed stools-Mixed Model: Treatment Difference (95% CI)” value ([3]; Rifaximin vs Vancomycin, mixed effects model with treatment, center, study day as fixed effects) was 0.32 (−0.08, 0.72). For the same compound, the “Adjusted mean number of unformed stools-ANOVA” value ([3]; during the treatment period, ANOVA model with treatment and center as main effects, Rifaximin N = 117, Vancomycin N = 115) was 2.36, the “IBS symptom of Bloating: at least 2 out of 4 weeks adequate relief during weeks 3 through 6” value (“IBS symptom of Bloating” for short) (subjects with IBS; Combined) was 30% vs 40% and the “Responders: Abdominal Pain reduction of 2 point in mean” value (subjects with IBS; Combined) was 18% vs 25%. For the same compound, the “Responders: Abdominal Pain reduction of 2 point in median” value (subjects with IBS; Combined) was 32% vs 39%, the “Responders: Abdominal Pain reduction of 3 point in mean” value (subjects with IBS; Combined) was 6% vs 7% and the “Responders: Abdominal Pain reduction of 3 point in median” value (subjects with IBS; Combined) was 18% vs 21%. For the same compound, the “Responders: Abdominal pain reduction of 1 point in mean” value (subjects with IBS; Combined) was 42% vs 52%, the “Responders: Daily abdominal pain <2” value (subjects with IBS; Combined) was 31% vs 39% and the “Responders: Overall reduction of mean weekly abdominal pain by > = 25%” value (subjects with IBS; Combined) was 47% vs 57%. For the same compound, the “Responders: Overall reduction of mean weekly abdominal pain by > = 50%” value (subjects with IBS; Combined) was 28% vs 35%, the “Responders: Overall reduction of mean weekly abdominal pain by > = 75%” value (subjects with IBS; Combined) was 11% vs 14% and the “Responders: Overall reduction of median weekly abdominal pain by > = 25%” value (subjects with IBS; Combined) was 52% vs 62%. For the same compound, the “Responders: Overall reduction of median weekly abdominal pain by > = 50%” value (subjects with IBS; Combined) was 34% vs 44%, the “Responders: Overall reduction of median weekly abdominal pain by > = 75%” value (subjects with IBS; Combined) was 18% vs 21% and the “Responders: Abdominal pain reduction of 1 point in median” value (subjects with IBS; Combined) was 53% vs 63%. The “IBS symptom of Bloating” value (subjects with IBS; Study 2) was 32% vs 41%, the “Responders: Abdominal Pain reduction of 2 point in mean” value (subjects with IBS; Study 2) was 18% vs 25% and the “Responders: Abdominal Pain reduction of 2 point in median” value (subjects with IBS; Study 2) was 30% vs 41%. The “Responders: Abdominal Pain reduction of 3 point in mean” value (subjects with IBS; Study 2) was 6% vs 7%, the “Responders: Abdominal Pain reduction of 3 point in median” value (subjects with IBS; Study 2) was 17% vs 21% and the “Responders: Abdominal pain reduction of 1 point in mean” value (subjects with IBS; Study 2) was 43% vs 52%. The “Responders: Daily abdominal pain <2” value (subjects with IBS; Study 2) was 31% vs 39%, the “Responders: Overall reduction of mean weekly abdominal pain by > = 25%” value (subjects with IBS; Study 2) was 47% vs 58% and the “Responders: Overall reduction of mean weekly abdominal pain by > = 50%” value (subjects with IBS; Study 2) was 29% vs 35%. For the same compound, the “Responders: Overall reduction of mean weekly abdominal pain by > = 75%” value (subjects with IBS; Study 2) was 11% vs 14%, the “Responders: Overall reduction of median weekly abdominal pain by > = 25%” value (subjects with IBS; Study 2) was 52% vs 62% and the “Responders: Overall reduction of median weekly abdominal pain by > = 50%” value (subjects with IBS; Study 2) was 35% vs 44%. The “Responders: Overall reduction of median weekly abdominal pain by > = 75%” value (subjects with IBS; Study 2) was 17% vs 20%, the “Responders: Abdominal pain reduction of 1 point in median” value (subjects with IBS; Study 2) was 53% vs 62% and the “IBS symptom of Bloating” value (subjects with IBS; Study [1]) was 29% vs 40%. For the same compound, the “Responders: Abdominal Pain reduction of 2 point in mean” value (subjects with IBS; Study [1]) was 18% vs 26%, the “Responders: Abdominal Pain reduction of 2 point in median” value (subjects with IBS; Study [1]) was 33% vs 37% and the “Responders: Abdominal Pain reduction of 3 point in mean” value (subjects with IBS; Study [1]) was 6% vs 7%. The “Responders: Abdominal Pain reduction of 3 point in median” value (subjects with IBS; Study [1]) was 19% vs 22%, the “Responders: Abdominal pain reduction of 1 point in mean” value (subjects with IBS; Study [1]) was 41% vs 52% and the “Responders: Overall reduction of mean weekly abdominal pain by > = 25%” value (subjects with IBS; Study [1]) was 47% vs 56%. For the same compound, the “Responders: Overall reduction of mean weekly abdominal pain by > = 50%” value (subjects with IBS; Study [1]) was 28% vs 36%, the “Responders: Overall reduction of mean weekly abdominal pain by > = 75%” value (subjects with IBS; Study [1]) was 10% vs 14% and the “Responders: Overall reduction of median weekly abdominal pain by > = 25%” value (subjects with IBS; Study [1]) was 52% vs 63%. The “Responders: Overall reduction of median weekly abdominal pain by > = 50%” value (subjects with IBS; Study [1]) was 34% vs 44%, the “Responders: Overall reduction of median weekly abdominal pain by > = 75%” value (subjects with IBS; Study [1]) was 19% vs 23% and the “Responders: Abdominal pain reduction of 1 point in median” value (subjects with IBS; Study [1]) was 52% vs 63%. For the same compound, the “Responders: Daily abdominal pain <2” value (subjects with IBS; Study [1], at least 50% of days in a week for at least 2 weeks during PEP) was 32% vs 40%, the “Global IBS symptoms: at least 2 out of 4 weeks adequate relief during weeks 3 through 6 (weekly question)” value (“Global IBS symptoms: at least 2 out” below) (subjects with IBS; first column (Study 1), second figure of 'x vs y') was 41% and the “Global IBS symptoms: at least 2 out” value (subjects with IBS; second column (Study 2)) was 41%. For the same compound, the “Global IBS symptoms: at least 2 out” value (subjects with IBS; third column (Combined)) was 41%.
